Experimental data: patent publication US9914698B2, “Stearoyl amino acid salt and preparation method and application thereof” (Shanghai Jiaotong University School of Medicine, priority 2014, dated 2018)
Read-outs that look alike come from different tables or passages of the source. Marks after values point to notes of the source that are not given here.

Tests used:
[1] = Equilibrium solubility, shake-flask method; format: physicochemical
Description: (§1) The shake-flask method was used to test the equilibrium solubility of NsTyr, NsTyr-2K, NsTyr-2Na in water at 37° C. […] The apparent lipid-water distribution coefficient log p of NsTyr-2K, NsTyr-2Na was respectively 1.512 and 1.477. Under different pHs, see Table 1 for the equilibrium solubility test data of NsTyr-2K, NsTyr-2Na; and see Table 2 for the apparent lipid-water distribution coefficient of NsTyr-2K and NsTyr-2Na.

[2] = Absorption kinetics after intragastric administration; format: in vivo; conditions: both sexes, Sprague-Dawley (SD), rat, blood; SD rats, oral 200 mg/kg
Description: Ten SD rats weighing 150-180 g were randomly divided into two groups, each comprising five, with males and females combined. After intragastric administration of 200 mg/kg of saline solution containing NsTyr and NsTyr-2K, the average blood concentration-time curve thereof was respectively shown in FIG. 2.

[3] = Apparent lipid-water distribution coefficient; format: physicochemical
Description: as §1

[4] = Stability assessment (influencing factors, acceleration and long-term tests, Chinese Pharmacopoeia 2010); format: physicochemical; conditions: high temperature, high humidity, strong light
Description: Considering that prototype drug stearoyl amino acid tend to absorb moisture, cake and become yellowish during long-term storage, the stearoyl amino acid is now converted into a form of active salt thereof. And the stability of NsTyr-2K and NsTyr-2Na was tested as required for bulk pharmaceutical chemicals according to the People's Republic of China Pharmacopoeia 2010.

[5] = test system: APP/PS1/TAU transgenic mice; test: Open-field test; format: in vivo
Source text: (§2) Materials for open-field test: a spontaneous activity watch box (80×80×30), on top of which is furnished with a fluorescent lamp as a lighting system, and on the center of whose roof is a CCD camera connected to the computer; and an ethological computer image analysis system (SHANGHAI MOBILEDATUM TECH INFORMATION CO. LTD).
(§3) Laboratory animals: C57BL/6I (from Jackson Lab) (APP/PS1/TAU transgenic mice) in C57BL/6J (TAU transgenic mice). All APP/PS1/TAU transgenic mice and TAU transgenic mice belong to the mouse disease model as for Alzheimer's disease.
(§4) [1] Priscila Cagni, Mrilia Barros. Cannabinoid type I receptor ligands WIN 55,212-2 and AM251 alter anxiety-like behaviors of marmoset monkeys in an open-field test. Behavioural Brain Research 2013; 240:91-94.
(§5) Principles: Open-field test is useful for evaluation of mouse anxiety and behavior probing the outside world. By nature mice are capable of both exploring the unknown territory and protecting themselves from damage due to external potential risks. Open-field test, therefore, can test such mouse capabilities by recording their duration of stay at the marginal area and the central area (where anxiety occurs) in an open field. Meanwhile, the test as such can also measure mouse movement capabilities such as speed.

TAU transgenic mice [6] = test: Open-field test; format: in vivo; conditions: medium-dose (30 mg/kg) and high-dose (45 mg/kg)
Source text: as §2, §3, §4, §5

[7] = test system: APP/PS1/TAU transgenic mice; test: High plus maze test; format: in vivo; conditions: different doses
Source text: (§6) Materials for high plus maze: consisting of two opening arms opposite to each other and two closing arms opposite to each other, a central platform connecting the aforesaid arms, and a short, 1-cm-high damper along the edges of the opening arms (to prevent animals from slipping off the maze in the process of exploring), with the floors of the four arms and the central platform being black; the floor of the maze adjusted to be 50 cm away from the laboratory ground; and an ethological computer image analysis system (SHANGHAI MOBILEDATUM TECH INFORMATION CO. LTD).
as §3
(§7) Principles: With a couple of opening arms and another couple of closing arms, the high plus maze is useful for assessment of animal anxiety by taking advantage of animal tendency to explore a new extraneous environment as well as their fear of high and open extending arms, which form a behavioral conflict. Rodents tend to move within closing arms due to their fondness of dark, but will, out of curiosity, go into opening arms and move around there. When stimulated by a novel environment, they will engender an impulse to explore and a fear at the same time.

TAU transgenic mice [8] = test: High plus maze test; format: in vivo
Source text: as §6, §3, §7

[9] = test system: APP/PS1 TAU transgenic mouse; test: Rota rod test; format: in vivo, mice; conditions: high-dose
Source text: Materials for rota rod test: rotary rod type fatigue tester YLS-4C (SHANGHAI MOBILEDATUM TECH INFORMATION CO. LTD).
as §3
Principles: Rota rod is useful for studying the effects of drugs upon movement coordination and fatigue resistance.

[10] = test system: APP/PS1/TAU transgenic mice; test: Morris water maze test (place navigation and spatial probe); format: in vivo
Source text: (§8) Materials for water maze test: a constant-temperature swimming pool, a platform for mice, and an ethological computer image analysis system (SHANGHAI MOBILEDATUM TECH INFORMATION CO. LTD).
as §3
(§9) Principles: Morris water maze test programs comprise two parts: place navigation test and spatial probe test. The former lasted a few days; each day mice were respectively put into water from four entries several times, and the time they spent seeking the platform hidden underwater (escape latency) was recorded. When place navigation test ended, the platform was removed. The latter recorded the mouse swimming trajectory after the mice were put into water from any chosen entry, and assessed their previous memory of the platform.

TAU transgenic mice [11] = test: as above; format: in vivo
Source text: as §8, §3, §9

obese mouse model [12] = test: Administration test in obese mouse model (weight, food intake); format: in vivo, C57BL/6 mice
Description: 2. Method: 60 C57BL/6 mice (aged 3 weeks, male, with a weight of 8.3 g each) were adaptively fed with 12% kcal normal diet for one week, and randomly divided into 6 groups, each consisting of 10 mice. One group (ND) continued to be fed with normal diet, the rest five groups (HFD I˜V) were fed with 45% kcal high-fat diet.
In the whole test process the mice kept raised in the following environment: temperature: 23±3° C.; humidity: 50±5%; bright and dim alternating cycle: 12 h/12 h; freely available to diet and drinking water in the whole process.
2. Method: ND and HFD I were respectively taken as normal and high-fat diet blank control groups, and were treated with 0.5% sodium carboxymethyl cellulose solution (5 ml/kg/day); HFD II˜IV were taken as groups of recipients, and were treated with NST-2K (20, 60, 100 mg/kg/day); HFD V was taken as a positive control group, and treated with Orlistat (100 mg/kg/day). All the above drugs dissolved in aqueous solution of 0.5% sodium carboxymethyl cellulose and were administered. The administration remained four weeks. In each week average weight and food intake were kept in record until the phase of administration ended.

obese mouse model [13] = test: Collection and observation of fat and liver tissues of obese mice; format: in vivo, C57BL/6 mice; conditions: 100 mg/kg/day
Source text: 2. Method: After administration test in Embodiment 8, the mice were denied food overnight. Their abdominal cavity was opened to observe abdominal fat content in each group of the mice. Epididymal fat, perirenal fat and liver were separated and weighed.

obese mouse model [14] = test: H&E staining of fat and liver tissue of obese mice; format: in vivo, C57BL/6 mice
Description: 2. Method: Epididymal fat and liver were fixed in 10% neutral formaldehyde solution for 48 h. After paraffin embedding they were made into […] of slices, and stained with hematoxylin-eosin (H&E staining). Light microscope was used to observe the size of fat cells, the structure of liver cells and adipose accumulation.

[15] = test system: gerbil model with global ischemia reperfusion injury; test: Neurobehavioral scores of acute cerebral ischemia reperfusion model; format: in vivo; conditions: positive control group, dose not given; ischemic model group 3.1+/−0.32
Source text: Taking N-stearoyl amino acid potassium NsTyr-2K as an example, a gerbil model with global ischemia reperfusion injury was used to assess the protective role of NsTyr-2K against neurobehavioral disorder caused by cerebral ischemia-reperfusion injury by examining the changing behavioral indexes such as spatial, learning and cognitive functions in the perspective of overall animals during passive dark avoidance test and Morris water maze test.

[16] = day 5, medium-dose and high-dose group, *P<0.05

## CCCCCCCCCCCCCCCCCC(=O)N[C@@H](Cc1ccc(O)cc1)C(=O)O [NsTyr, N-stearoyl tyrosine]
[1]; thermodynamic from solid, water, 37° C., read-out: equilibrium solubility in water
  solubility thermodynamic: < 1 mg/mL
[2]
  AUC(0-inf): 0.14 µg·h/mL
  AUC(0-t): 0.13 µg·h/mL
  Cmax: 0.11 µg/mL
  MRT last: 1.38 h
  Tmax: 0.75 h
  half-life: 1.49 h

## CCCCCCCCCCCCCCCCCC(=O)N[C@@H](Cc1ccc(O)cc1)C(=O)[O-].CCCCCCCCCCCCCCCCCC(=O)N[C@@H](Cc1ccc(O)cc1)C(=O)[O-].[Na+].[Na+] [NsTyr-2Na]
[1]; pH 2.0
  Equilibrium solubility in buffer solution: 0.066938 mg/mL
[1]; pH 3.0
  Equilibrium solubility in buffer solution: 0.066334 mg/mL
[1]; pH 4.0
  Equilibrium solubility in buffer solution: 0.195371 mg/mL
[1]; pH 5.0
  Equilibrium solubility in buffer solution: 0.232102 mg/mL
[1]; pH 6.0
  Equilibrium solubility in buffer solution: 0.274629 mg/mL
[1]; pH 7.0
  Equilibrium solubility in buffer solution: 0.318016 mg/mL
[1]; pH 7.4
  Equilibrium solubility in buffer solution: 0.374484 mg/mL
[1]; pH 8.0
  Equilibrium solubility in buffer solution: 0.463902 mg/mL
[1]; pH 9.0
  Equilibrium solubility in buffer solution: 0.512644 mg/mL
[3]
  Apparent lipid-water distribution coefficient LogP: 1.477
[3]; buffer pH 2.0
  Apparent lipid-water distribution coefficient Ko/w: 49.913
  Apparent lipid-water distribution coefficient LogP: 1.698
[3]; buffer pH 3.0
  Apparent lipid-water distribution coefficient Ko/w: 28.980
  Apparent lipid-water distribution coefficient LogP: 1.462
[3]; buffer pH 4.0
  Apparent lipid-water distribution coefficient Ko/w: 15.224
  Apparent lipid-water distribution coefficient LogP: 1.183
[3]; buffer pH 5.0
  Apparent lipid-water distribution coefficient Ko/w: 18.710
  Apparent lipid-water distribution coefficient LogP: 1.272
[3]; buffer pH 6.0
  Apparent lipid-water distribution coefficient Ko/w: 19.963
  Apparent lipid-water distribution coefficient LogP: 1.300
[3]; buffer pH 7.0
  Apparent lipid-water distribution coefficient Ko/w: 31.436
  Apparent lipid-water distribution coefficient LogP: 1.497
[3]; buffer pH 7.4
  Apparent lipid-water distribution coefficient Ko/w: 29.286
  Apparent lipid-water distribution coefficient LogP: 1.467
[3]; buffer pH 8.0
  Apparent lipid-water distribution coefficient Ko/w: 28.704
  Apparent lipid-water distribution coefficient LogP: 1.458
[3]; buffer pH 9.0
  Apparent lipid-water distribution coefficient Ko/w: 21.872
  Apparent lipid-water distribution coefficient LogP: 1.340
[4]
  stability: stable properties
[5]; 15, 30, 45 mg/kg
  duration of stay at the central activity area: could not be changed
[5]; high-dose 45 mg/kg
  mouse journey: could increase mouse journey
TAU transgenic mice [6]
  duration of stay in the central area: reduce their duration of stay in the central area
  movement ability (journey): could enhance transgenic mouse movement ability
[7]
  low anxiety state: did not change
TAU transgenic mice [8]; different doses
  low-anxiety state: the low-anxiety state was changed
TAU transgenic mice [8]; high-dose, compared with the animal model group
  low-anxiety state: significant difference
[9]
  movement coordination: could obviously improve the phenomenon
[10]; day 4, dosing group vs model group
  latency in place navigation test: no significant difference
[10]; [16]
  latency in place navigation test: significant difference
[10]; day 5, platform removed, high-dose group
  swimming time percentage in the third quadrant (probe test): statistical significance
[10]; spatial probe test
  spatial probing (swimming trajectory, FIG. 11): only the high-dose group could enhance their spatial probing
TAU transgenic mice [11]; day 4, high-dose group vs model group
  latency in place navigation test: significant difference
TAU transgenic mice [11]; [16]
  latency in place navigation test: significant difference
TAU transgenic mice [11]; day 5, platform removed, medium-dose and high-dose group
  swimming time percentage in the third quadrant (probe test): statistical significance
TAU transgenic mice [11]; spatial probe test
  spatial probing (swimming trajectory, FIG. 11): both the medium- and high-dose groups could improve their spatial probing

## CCCCCCCCCCC[C@@H](C[C@@H]1OC(=O)[C@H]1CCCCCC)OC(=O)[C@H](CC(C)C)NC=O [Orlistat, reference compound]
Obese mouse model [12]; 100 mg/kg/day, four weeks
  obese mouse weight: can inhibit weight gain in obese mice
Obese mouse model [12]; 4-week administration, high-fat diet groups
  appetite (average daily food intake): neither NST-2K nor Orlistat suppressed appetite
Obese mouse model [13]; HFD I blank 1.63 ± 0.10
  perirenal fat percentage quality: 1.32 ± 0.06 g/100 g weight
Obese mouse model [13]; HFD I blank 2.99 ± 0.08
  Epididymal fat percentage quality: 2.66 ± 0.07 g/100 g weight
Obese mouse model [13]; HFD I blank 3.51 ± 0.07
  Liver percentage quality: 3.48 ± 0.06***^ g/100 g weight
Obese mouse model [14]; HFD III, HFD IV (NST-2K 60, 100 mg/kg/day) and HFD V (Orlistat 100 mg/kg/day) vs HFD I
  size of epididymal fat cells: evidently smaller fat cells than HFD I
Obese mouse model [14]; as the administration dose increased, vs HFD I
  fat accumulation in liver tissues: the accumulation began to ease

## COCCOC(=O)C1=C(C)NC(C)=C(C(=O)OC(C)C)C1c1cccc([N+](=O)[O-])c1 (stereo not drawn) [nimotop, reference compound]
[15]
  neurobehavioral score: 1.12+/−0.31
